In article PMC10088252:

Experimental: Dose adjustment was allowed according to the severity of toxicity [Supplementary Table 1].
The primary endpoints were safety, ORR and DCR assessed by investigators. […] AEs referred to treatment-emergent adverse events (TEAEs) and TRAEs were assessed by investigators. Serious adverse events (SAEs) referred to AEs meeting at least one of the following criteria: event leading to death; life-threatening event; event requiring hospitalization or extension of hospital stay; event leading to persistent or evident disability or dysfunction; event leading to congenital malformation or birth defect or event which might lead to injury or that need medical treatment to avoid the above mentioned important medical events.

For `O=C(Nc1ccc(Oc2ccnc3c2CCN3)c(F)c1)c1c[nH]cc(-c2ccc(F)cc2)c1=O`, the “TRAE Hyperhidrosis, grade 3-4” value (450 mg QD (n=12)) was 0 n (%), the “TRAE Hyperlipidaemia, any grade” value (450 mg QD (n=12)) was 0 n (%) and the “TRAE Hyperlipidaemia, grade 3-4” value (450 mg QD (n=12)) was 0 n (%). For the same compound, the “TRAE Hypertension, any grade” value (450 mg QD (n=12)) was 0 n (%), the “TRAE Hypertension, grade 3-4” value (450 mg QD (n=12)) was 0 n (%) and the “TRAE Hypoaesthesia oral, any grade” value (450 mg QD (n=12)) was 2 (16.7) n (%). The “TRAE Hypoaesthesia oral, grade 3-4” value (450 mg QD (n=12)) was 0 n (%), the “TRAE Hypocalcaemia, any grade” value (450 mg QD (n=12)) was 0 n (%) and the “TRAE Hypocalcaemia, grade 3-4” value (450 mg QD (n=12)) was 0 n (%). For the same compound, the “TRAE Hypotension, any grade” value (450 mg QD (n=12)) was 0 n (%), the “TRAE Hypotension, grade 3-4” value (450 mg QD (n=12)) was 0 n (%) and the “TRAE Insomnia, any grade” value (450 mg QD (n=12)) was 0 n (%). For the same compound, the “TRAE Insomnia, grade 3-4” value (450 mg QD (n=12)) was 0 n (%), the “TRAE Leukopenia, any grade” value (450 mg QD (n=12)) was 1 (8.3) n (%) and the “TRAE Leukopenia, grade 3-4” value (450 mg QD (n=12)) was 0 n (%). For the same compound, the “TRAE Nausea, any grade” value (450 mg QD (n=12)) was 0 n (%), the “TRAE Nausea, grade 3-4” value (450 mg QD (n=12)) was 0 n (%) and the “TRAE Neuritis, any grade” value (450 mg QD (n=12)) was 0 n (%). The “TRAE Neuritis, grade 3-4” value (450 mg QD (n=12)) was 0 n (%), the “TRAE Occult blood, any grade” value (450 mg QD (n=12)) was 1 (8.3) n (%) and the “TRAE Occult blood, grade 3-4” value (450 mg QD (n=12)) was 0 n (%). The “TRAE Oedema peripheral, any grade” value (450 mg QD (n=12)) was 1 (8.3) n (%), the “TRAE Oedema peripheral, grade 3-4” value (450 mg QD (n=12)) was 0 n (%) and the “TRAE Onycholysis, any grade” value (450 mg QD (n=12)) was 1 (8.3) n (%). For the same compound, the “TRAE Onycholysis, grade 3-4” value (450 mg QD (n=12)) was 0 n (%), the “TRAE Oropharyngeal pain, any grade” value (450 mg QD (n=12)) was 0 n (%) and the “TRAE Oropharyngeal pain, grade 3-4” value (450 mg QD (n=12)) was 0 n (%). For the same compound, the “TRAE PPE, any grade” value (450 mg QD (n=12)) was 3 (25.0) n (%), the “TRAE PPE, grade 3-4” value (450 mg QD (n=12)) was 1 (8.3) n (%) and the “TRAE Paraesthesia, any grade” value (450 mg QD (n=12)) was 1 (8.3) n (%). For the same compound, the “TRAE Paraesthesia, grade 3-4” value (450 mg QD (n=12)) was 0 n (%), the “TRAE Proteinuria, any grade” value (450 mg QD (n=12)) was 3 (25.0) n (%) and the “TRAE Proteinuria, grade 3-4” value (450 mg QD (n=12)) was 1 (8.3) n (%). For the same compound, the “TRAE Pruritus, any grade” value (450 mg QD (n=12)) was 1 (8.3) n (%), the “TRAE Pruritus, grade 3-4” value (450 mg QD (n=12)) was 0 n (%) and the “TRAE Rash maculo-papular, any grade” value (450 mg QD (n=12)) was 0 n (%). For the same compound, the “TRAE Rash maculo-papular, grade 3-4” value (450 mg QD (n=12)) was 0 n (%), the “TRAE Sinus tachycardia, any grade” value (450 mg QD (n=12)) was 0 n (%) and the “TRAE Sinus tachycardia, grade 3-4” value (450 mg QD (n=12)) was 0 n (%). For the same compound, the “TRAE Skin fissures, any grade” value (450 mg QD (n=12)) was 0 n (%), the “TRAE Skin fissures, grade 3-4” value (450 mg QD (n=12)) was 0 n (%) and the “TRAE Supraventricular extrasystoles, any grade” value (450 mg QD (n=12)) was 0 n (%). For the same compound, the “TRAE Supraventricular extrasystoles, grade 3-4” value (450 mg QD (n=12)) was 0 n (%), the “TRAE Thrombocytopenia, any grade” value (450 mg QD (n=12)) was 0 n (%) and the “TRAE Thrombocytopenia, grade 3-4” value (450 mg QD (n=12)) was 0 n (%). The “TRAE Upper respiratory tract infection, any grade” value (450 mg QD (n=12)) was 0 n (%), the “TRAE Upper respiratory tract infection, grade 3-4” value (450 mg QD (n=12)) was 0 n (%) and the “TRAE Urinary retention, any grade” value (450 mg QD (n=12)) was 0 n (%). For the same compound, the “TRAE Urinary retention, grade 3-4” value (450 mg QD (n=12)) was 0 n (%), the “TRAE Urinary tract infection, any grade” value (450 mg QD (n=12)) was 1 (8.3) n (%) and the “TRAE Urinary tract infection, grade 3-4” value (450 mg QD (n=12)) was 0 n (%). The “TRAE Ventricular arrhythmia, any grade” value (450 mg QD (n=12)) was 1 (8.3) n (%), the “TRAE Ventricular arrhythmia, grade 3-4” value (450 mg QD (n=12)) was 0 n (%) and the “TRAE Ventricular extrasystoles, any grade” value (450 mg QD (n=12)) was 0 n (%). The “TRAE Ventricular extrasystoles, grade 3-4” value (450 mg QD (n=12)) was 0 n (%), the “TRAE Vomiting, any grade” value (450 mg QD (n=12)) was 1 (8.3) n (%) and the “TRAE Vomiting, grade 3-4” value (450 mg QD (n=12)) was 0 n (%). For the same compound, the “TRAE Weight loss, any grade” value (450 mg QD (n=12)) was 0 n (%), the “TRAE Weight loss, grade 3-4” value (450 mg QD (n=12)) was 0 n (%) and the “patients with TEAE of pulmonary infection leading to death, deemed unrelated” value (450 mg QD cohort) was “One”. The “TRAE Accessory nerve disorder, any grade” value (600 mg QD (n=10)) was 0 n (%), the “TRAE Accessory nerve disorder, grade 3-4” value (600 mg QD (n=10)) was 0 n (%) and the “TRAE Activated partial thromboplastin time prolonged, any grade” value (600 mg QD (n=10)) was 0 n (%). The “TRAE Activated partial thromboplastin time prolonged, grade 3-4” value (600 mg QD (n=10)) was 0 n (%), the “TRAE Anaemia, any grade” value (600 mg QD (n=10)) was 1 (10.0) n (%) and the “TRAE Anaemia, grade 3-4” value (600 mg QD (n=10)) was 0 n (%). For the same compound, the “TRAE Anaesthesia oral, any grade” value (600 mg QD (n=10)) was 1 (10.0) n (%), the “TRAE Anaesthesia oral, grade 3-4” value (600 mg QD (n=10)) was 0 n (%) and the “TRAE Arrhythmia, any grade” value (600 mg QD (n=10)) was 1 (10.0) n (%). For the same compound, the “TRAE Arrhythmia, grade 3-4” value (600 mg QD (n=10)) was 0 n (%), the “TRAE Arthralgia, any grade” value (600 mg QD (n=10)) was 0 n (%) and the “TRAE Arthralgia, grade 3-4” value (600 mg QD (n=10)) was 0 n (%). The “TRAE Asthenia, any grade” value (600 mg QD (n=10)) was 3 (30.0) n (%), the “TRAE Asthenia, grade 3-4” value (600 mg QD (n=10)) was 1 (10.0) n (%) and the “TRAE Blister, any grade” value (600 mg QD (n=10)) was 0 n (%). The “TRAE Blister, grade 3-4” value (600 mg QD (n=10)) was 0 n (%), the “TRAE Chest discomfort, any grade” value (600 mg QD (n=10)) was 0 n (%) and the “TRAE Chest discomfort, grade 3-4” value (600 mg QD (n=10)) was 0 n (%). The “TRAE Chronic kidney disease, any grade” value (600 mg QD (n=10)) was 0 n (%), the “TRAE Chronic kidney disease, grade 3-4” value (600 mg QD (n=10)) was 0 n (%) and the “TRAE Constipation, any grade” value (600 mg QD (n=10)) was 1 (10.0) n (%). For the same compound, the “TRAE Constipation, grade 3-4” value (600 mg QD (n=10)) was 0 n (%), the “TRAE Cough, any grade” value (600 mg QD (n=10)) was 1 (10.0) n (%) and the “TRAE Cough, grade 3-4” value (600 mg QD (n=10)) was 0 n (%).
